Test results reported in US10220008B2, “Treatment and prevention of stroke and other neurological disorders” (STC.UNM, priority 2013, dated 2019).
Entries after “also recorded” stand apart in the source; their conditions may differ. Where a name gives a salt, the structure may show the parent alone.

Legend:
[1] = tested on: spontaneously hypertensive rats (SHR); test: Middle cerebral artery occlusion (MCAO) model of transient focal ischemia; assay type: in vivo, rat
Source text: All animal procedures were approved by the University of New Mexico Institutional Animal Care and Use Committee and were in compliance with federal guidelines. Male spontaneously hypertensive rats (SHR) weighing 290-300 g were obtained from Charles River Laboratories. Animals were anesthetized with 2% isoflurane inhalant during all surgical procedures. The right common carotid artery (CCA) was ligated approximately 6 mm caudal to the bifurcation of the external and internal carotid arteries. With a vascular clamp in place on the CCA immediately caudal to the bifurcation, an incision was made in the CCA 5 mm caudal to the clamp and a nylon suture (Doccol Corporation) 30 mm in length with a 2-3 mm silicone coated tip (0.39 mm diameter) was advanced into the CCA lumen and secured in place with 2 4-0 silk sutures spaced 3 mm apart and tied loosely around the CCA caudal to the clamp. The clamp was removed and the suture advanced into the internal carotid artery until resistance was felt. In this position, the filament occludes the MCA origin and MCA territory becomes ischemic. The suture was secured with the 2 silk sutures around the CCA. […] Edema-corrected infarct volume was calculated by subtracting the area of non-infarcted tissue in the ipsilateral hemisphere from the total volume of the contralateral hemisphere. Infarct volume was quantified using Image J software.

primary cortical neurons [2] = test: Secondary screening: TUNEL apoptosis assay after 2 hours OGD, compounds given at or after reoxygenation; assay type: cell-based, Spraque-Dawley rat; settings: for dose providing maximum neuroprotection against OGD-induced apoptosis (optimal dose): at reoxygenation after 2 hours OGD; for neuroprotection when administered after reoxygenation onset (time course): optimal dose given 0, 15, 30, 60 minutes after reoxygenation onset after 2 hours OGD
Method: Cortical neurons were obtained from Spraque-Dawley rat embryos at day 18 of gestation. Cortices were triturated and pre-plated 4 times for 30 minutes in 150 mm vacuum-plasma treated dishes (BD). During these pre-plating steps, primarily non-neuronal cells adhere to the dish, thereby enriching the neuronal population. Enriched neurons were plated in Neurobasal medium containing 2% fetal bovine serum (FBS), 25 μM Glutamax, and penicillin-streptomycin (Gibco) in poly-D-lysine-coated white clear-bottomed 96-well plates or 24-well plates (Becton-Dickinson) at a density of 50×10^3/cm^2. Twenty-four hours later (1 day in vitro, 1 DIV), 50% of the medium was replaced with Neurobasal medium, 2% B27 (Gibco), and 4 μM cytosine arabinoside (AraC) (2 μM AraC final). At 5 DIV, 50% of the medium was replaced with Neurobasal, 2% B27. At 7 DIV, cortical cultures were 98% neurons as assessed by microtubule-associated protein 2 (MAP2) antibody labeling and flow cytometry analysis (data not shown). In vitro experiments were performed in quadruplicate and results are shown as means with standard deviation.
Neuroprotection by candidate compounds was assayed by measurement of apoptosis using terminal deoxynucleotidyl transferase dUTP nick end labeling (TUNEL) reagents as described previously.^6 At 7 DIV, primary neurons grown on poly-D-lysine-coated 22 mm-diameter cover slips in 24-well plates underwent 2 hours of OGD and were treated with a range of doses of each compound at reoxygenation. Compounds providing greater than 2-fold protection over vehicle were then administered at the optimal dose after OGD at intervals of 0, 15, 30, and 60 minutes post-reoxygenation.

primary cortical neurons [3] = test: High-throughput oxygen-glucose deprivation (OGD) screen of the Prestwick Chemical Library, CytotoxGlo dead/live cell protease ratio; assay type: cell-based, Spraque-Dawley rat; settings: pretreatment, 10 μM, pure cortical neurons
Method: The Prestwick Chemical Library (Prestwick Chemical) was screened for neuroprotection in OGD by pre-treating 7 DIV cortical neurons in 96-well dishes with 10 μM compounds for 30 minutes. All liquid handling was automated and performed by a Beckman Coulter Biomek NX multichannel pipettor. The pretreatment medium was transferred to a clean plate for storage and was kept at 37° C. in a 5% CO2 environment during the OGD exposure. After pretreatment, cells were washed 3 times with deoxygenated glucose-free Hank's buffered saline solution (HBSS), pH 7.4, to remove glucose and oxygen and were covered with 100 μl HBSS. HBSS was deoxygenated in a gas washing bottle with 60 liters of 95% nitrogen, 5% CO2 per 250 ml HBSS. HBSS was maintained at 37° C. during deoxygenation in a water bath. Compounds were added to wells and plates were sealed with sealing tape and placed in a 37° C. incubator for 2 hours (OGD). After 2 hours, HBSS was removed and pretreatment medium was returned to the wells. After 24 hours, neuronal death was quantified using CytotoxGlo reagents (Promega) and a Victor^3 V luminometer (Perkin Elmer) according to the manufacturer's instructions. Eight wells per dish were used as DMSO-treated vehicle-only controls. […]

| Structure (SMILES) | dose providing maximum neuroprotection against OGD-induced apoptosis (optimal dose) (primary cortical neurons [2]; 0.01 to 100 nM tested) [nM] | neuroprotection when administered after reoxygenation onset (time course) (primary cortical neurons [2]) | neuroprotection in the high-throughput screen (in words) (primary cortical neurons [3]) | other results |
| --- | --- | --- | --- | --- |
| C[C@H](COc1ccccc1)N[C@H](C)[C@H](O)c1ccc(O)cc1 (racemic) [Isoxsuprine hydrochloride, 4-{1-hydroxy-2-[(1-methyl-2-phenoxyethyl)amino]propyl}phenol] | 1 | no loss of efficacy; also recorded: no decrease in neuroprotection; also recorded: no loss of neuroprotection |  | total edema-corrected infarct volume ([1]; 1 mg/kg IV at onset of reperfusion after 90-minute MCAO, 24 hours reperfusion, vehicle 279±25, n=7): 137±18 mm^3; reduction of infarct volume versus vehicle ([1]; single dose 1 mg/kg IV at reperfusion): reduced infarct volume by half |
| CN1CCN2c3ccccc3Cc3ccccc3C2C1 (centres unmarked) [Mianserine hydrochloride] |  |  | highly protective | neuroprotection in the secondary screen (in words) (primary cortical neurons [2]; given at reoxygenation): ineffective |
| CCNCC(O)c1cccc(O)c1 (centres unmarked) [Etilefrine hydrochloride] | 1 |  |  | neuroprotection when administered after reoxygenation onset (time course) (primary cortical neurons [2]; listed as etilifrine, hydrochloride): significantly decreased; also recorded: significant decrease in neuroprotection |
| NC(=O)OCC(O)COc1ccc(Cl)cc1 (centres unmarked) [Chlorphenesin carbamate] |  | no decrease in neuroprotection; also recorded: no loss of neuroprotection |  | dose providing maximum neuroprotection against OGD-induced apoptosis (optimal dose) (primary cortical neurons [2]; 100 to 300 μM tested): 200000 nM |
| CC(C)(C)NCC(O)c1cc(Cl)c(N)c(Cl)c1 (centres unmarked) [clenbuterol] |  |  | not identified as a neuroprotective compound |  |
